Key:
Assay in all cases: combination Emax (second highest fraction inhibited in the dose matrix, 72 h); higher = more inhibition; extreme values may be limits of the assay
[1] = system: LU-165 (Small Cell Lung Carcinoma)
In short: (§1)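 Cell lines grown in DMEM/F12 or RPMI with 10% FBS were plated in 1536-well plates and held 24 hours at 37°C, 5% CO2 before 72 hours of exposure to two-drug dose matrices, with DMSO typically at 0.2%. CellTiter-Glo 2.0 luminescence gave viability, which was converted to inhibition. Vehicle wells were set to 0 and blank wells to 1. Combination Emax is the second-highest inhibition in the matrix, and Bliss excess is the observed combination effect minus the expected EA + EB − EA·EB, where EA and EB are the single-agent effects.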

[2] = system: DMS-53 (Small Cell Lung Carcinoma)
In short: as §1

[3] = system: MDA-MB-436 (Breast Carcinoma)
In short: as §1

[4] = system: ESO26 (Esophageal Adenocarcinoma)
In short: as §1

KP-N-YN (Neuroblastoma) = system: KP-N-YN (Neuroblastoma)
In short: as §1

[5] = system: EPLC-272H (Other Solid Carcinomas)
In short: as §1

5637 (Bladder Carcinoma) = system: 5637 (Bladder Carcinoma)
In short: as §1

[6] = system: HT55 (Colorectal Carcinoma)
In short: as §1

RH-41 (Rhabdomyosarcoma) = system: RH-41 (Rhabdomyosarcoma)
In short: as §1

EW-16 (Ewing's Sarcoma) = system: EW-16 (Ewing's Sarcoma)
In short: as §1

[7] = system: HCC1395 (Breast Carcinoma)
In short: as §1

EB2 (Burkitt's Lymphoma) = system: EB2 (Burkitt's Lymphoma)
In short: as §1

[8] = system: HCC1428 (Breast Carcinoma)
In short: as §1

[9] = system: MHH-ES-1 (Ewing's Sarcoma)
In short: as §1

EW-7 (Ewing's Sarcoma) = system: EW-7 (Ewing's Sarcoma)
In short: as §1

[10] = system: GA-10 (Burkitt's Lymphoma)
In short: as §1

COLO-792 (Melanoma) = system: COLO-792 (Melanoma)
In short: as §1

[11] = system: LS-411N (Colorectal Carcinoma)
In short: as §1

[12] = system: SW620 (Colorectal Carcinoma)
In short: as §1

PEO1 (Ovarian Carcinoma) = system: PEO1 (Ovarian Carcinoma)
In short: as §1

SMILES	combination Emax [1]	combination Emax [2]	combination Emax [3]	combination Emax [4]	combination Emax (KP-N-YN (Neuroblastoma))	combination Emax [5]	combination Emax (5637 (Bladder Carcinoma))	combination Emax [6]	combination Emax (RH-41 (Rhabdomyosarcoma))	combination Emax (EW-16 (Ewing's Sarcoma))	combination Emax [7]	combination Emax (EB2 (Burkitt's Lymphoma))	combination Emax [8]	combination Emax [9]	combination Emax (EW-7 (Ewing's Sarcoma))	combination Emax [10]	combination Emax (COLO-792 (Melanoma))	combination Emax [11]	combination Emax [12]	combination Emax (PEO1 (Ovarian Carcinoma))
Cc1c2c(nn1C)CSCc1cc(n(C)n1)CSc1cc(c3ccccc3c1)OCCCc1c(C(=O)O)n(C)c3c-2c(Cl)ccc13 [AZD5991] + CN(C)CCCOc1ccc(-c2ccc3ncc4c(c3c2)n(C2CCOCC2)c(=O)n4C)cn1 [AZD0156] (first compound max 1 µM, 7x7, partner max 1 µM)	0.286	0.716	0.167	0.269	0.252	0.936	0.216	0.276	1	0.29	0.537	0.42	0.961	0.652	0.376	0.776	1	0.136	0.294	0.15
COc1nnc2ccc(N3CCC(c4ccc(OCCN5CCN(C)C(=O)[C@H]5C)cc4)CC3)nn12 [AZD5153] + C[C@@H]1COCCN1C2=NC(=NC(=C2)C3(CC3)[S@](=N)(=O)C)C4=C5C=CNC5=NC=C4 [AZD6738] (first compound max 1 µM, 7x7, partner max 10 µM)	0.685	0.58	0.332	0.84	0.955	0.919	0.823	0.748	0.99	0.747	0.671	0.764	0.732	0.812	0.961	0.962	0.72	0.947	0.784	0.748
CC(=O)Nc1cccc(-n2c(=O)n(C3CC3)c(=O)c3c(Nc4ccc(I)cc4F)n(C)c(=O)c(C)c32)c1 [Trametinib] + Cc1nc(-c2cn3c(n2)-c2ccc(-c4cnn(C(C)(C)C(N)=O)c4)cc2OCC3)n(C(C)C)n1 [Taselisib] (first compound max 1 µM, 7x7, partner max 10 µM)	0.373	0.294	0.527	0.746	0.528	1	0.989	0.859	1	0.604	0.654	0.593	0.278	0.563	1	0.682	1	0.946	0.77	0.825
COc1cccc(OCCCN)c1-c1cc(Nc2cnc(C#N)cn2)n[nH]1 [Prexasertib] + C[C@@H]1COCCN1C2=NC(=NC(=C2)C3(CC3)[S@](=N)(=O)C)C4=C5C=CNC5=NC=C4 [AZD6738] (first compound max 1 µM, 7x7, partner max 10 µM)	0.565	0.272	0.473	0.541	1	0.942	0.845	0.65	0.97	0.736	0.86	0.92	0.378	0.693	0.971	1	0.351	0.795	0.744	0.489
COc1nnc2ccc(N3CCC(c4ccc(OCCN5CCN(C)C(=O)[C@H]5C)cc4)CC3)nn12 [AZD5153] + Cn1cnc2c(F)c(Nc3ccc(Br)cc3Cl)c(C(=O)NOCCO)cc21 [Selumetinib] (first compound max 1 µM, 7x7, partner max 10 µM)	0.357	0.426	0.217	0.709	0.369	0.868	0.81	0.857	0.92	0.506	0.305	0.502	0.728	0.707	0.357	0.714	0.882	0.997	0.76	0.483
Cc1c2c(nn1C)CSCc1cc(n(C)n1)CSc1cc(c3ccccc3c1)OCCCc1c(C(=O)O)n(C)c3c-2c(Cl)ccc13 [AZD5991] + C[C@@H]1COCCN1C2=NC(=NC(=C2)C3(CC3)[S@](=N)(=O)C)C4=C5C=CNC5=NC=C4 [AZD6738] (first compound max 1 µM, 7x7, partner max 10 µM)	0.321	0.616	0.334	0.544	0.968	0.993	0.787	0.503	1	0.756	0.918	0.8	0.974	0.837	0.998	0.998	1	0.772	0.543	0.522
CC1(C)CCC(CN2CCN(c3ccc(C(=O)NS(=O)(=O)c4ccc(NCC5CCOCC5)c([N+](=O)[O-])c4)c(Oc4cnc5[nH]ccc5c4)c3)CC2)=C(c2ccc(Cl)cc2)C1 [Venetoclax] + C=CCn1c(=O)c2cnc(Nc3ccc(N4CCN(C)CC4)cc3)nc2n1-c1cccc(C(C)(C)O)n1 [AZD1775] (first compound max 1 µM, partner max 1 µM)	0.364	0.694	0.231	0.682	0.981	0.761	0.861	0.664	1	0.526	0.81	0.932	0.22	0.776	0.974	1	0.399	0.55	0.51	0.337
COc1nnc2ccc(N3CCC(c4ccc(OCCN5CCN(C)C(=O)[C@H]5C)cc4)CC3)nn12 [AZD5153] + Cc1c2c(nn1C)CSCc1cc(n(C)n1)CSc1cc(c3ccccc3c1)OCCCc1c(C(=O)O)n(C)c3c-2c(Cl)ccc13 [AZD5991] (first compound max 1 µM, 7x7, partner max 1 µM)	0.65	0.612	0.293	0.778	0.449	0.959	0.637	0.61	1	0.486	0.817	0.608	0.984	0.911	0.759	0.967	1	0.917	0.512	0.432
Cc1c2c(nn1C)CSCc1cc(n(C)n1)CSc1cc(c3ccccc3c1)OCCCc1c(C(=O)O)n(C)c3c-2c(Cl)ccc13 [AZD5991] + CC1(C)CCC(CN2CCN(c3ccc(C(=O)NS(=O)(=O)c4ccc(NCC5CCOCC5)c([N+](=O)[O-])c4)c(Oc4cnc5[nH]ccc5c4)c3)CC2)=C(c2ccc(Cl)cc2)C1 [Venetoclax] (first compound max 1 µM, 7x7, partner max 1 µM)	0.291	0.828	0.0835	0.151	0.817	0.901	0.217	0.13	1	0.273	0.736	0.332	0.987	0.852	0.487	0.64	0.997	0.157	0.191	0.164
CC(=O)c1c(C)c2cnc(Nc3ccc(N4CCNCC4)cn3)nc2n(C2CCCC2)c1=O [Palbociclib] + Cc1c2c(nn1C)CSCc1cc(n(C)n1)CSc1cc(c3ccccc3c1)OCCCc1c(C(=O)O)n(C)c3c-2c(Cl)ccc13 [AZD5991] (first compound max 10 µM, 7x7, partner max 1 µM)	0.167	0.263	0.229	0.63	0.387	0.822	0.197	0.506	0.911	0.415	0.419	0.518	0.952	0.622	0.494	0.975	0.836	0.347	0.466	0.329
CC1(C)CCC(CN2CCN(c3ccc(C(=O)NS(=O)(=O)c4ccc(NCC5CCOCC5)c([N+](=O)[O-])c4)c(Oc4cnc5[nH]ccc5c4)c3)CC2)=C(c2ccc(Cl)cc2)C1 [Venetoclax] + Cn1cnc2c(F)c(Nc3ccc(Br)cc3Cl)c(C(=O)NOCCO)cc21 [Selumetinib] (first compound max 1 µM, 7x7, partner max 3 µM)	0.142	0.367	0.111	0.137	0.632	0.506	0.264	0.728	0.289	0.127	0.693	0.755	0.132	0.0867	0.887	0.207	0.505	0.526	0.575	0.19
CC1(C)CCC(CN2CCN(c3ccc(C(=O)NS(=O)(=O)c4ccc(NCC5CCOCC5)c([N+](=O)[O-])c4)c(Oc4cnc5[nH]ccc5c4)c3)CC2)=C(c2ccc(Cl)cc2)C1 [Venetoclax] + CN(C)CCCOc1ccc(-c2ccc3ncc4c(c3c2)n(C2CCOCC2)c(=O)n4C)cn1 [AZD0156] (first compound max 1 µM, 7x7, partner max 1 µM)	0.164	0.44	0.168	0.0967	0.528	0.395	0.15	0.173	0.491	0.19	0.685	0.736	0.161	0.487	0.944	0.278	0.245	0.118	0.196	0.134
